Measured values taken from patent publication US9133224B2, “Macrocyclic kinase inhibitors” (OSI Pharmaceuticals, LLC, priority 2010, dated 2015).
pIC50: −log10 of the molar value. Where two headings read alike, the source gives them in different places.

How the values were obtained:
[1] = target: T1, GST-tagged full-length FAK enzyme (PTK2) (Homo sapiens, UniProt Q05397); experiment: Biochemical Omnia Assay (FAK)
T1 construct: GST-tagged full-length FAK enzyme (PTK2, Invitrogen PV4085); GST; purchased Invitrogen PV4085
Procedure: Biochemical Omnia Assay Protocol
The Omnia Assay (Invitrogen) has been optimized for GST-tagged full-length FAK enzyme (PTK2, Invitrogen PV4085).
All compound concentrations were assayed in duplicate. Initial compound dilutions were prepared at 100× concentration in 100% DMSO from a 10 mM stock solution. Compounds were further diluted 1:25 in assay buffer resulting in a 4× concentrated solution.
In running the assay, 5 μL of the above 4× concentrated compound solution (or 4% DMSO for positive controls) was added to the assay plate followed by 5 μL of a solution containing peptide (40 μM) and ATP (200 μM) in assay buffer. The reaction was initiated by the addition of 10 μL of FAK (50 nM) in assay buffer, or assay buffer alone for negative controls. The increase in fluorescence due to peptide phosphorylation was monitored continuously as a function of time using a Spectramax M5 plate reader (Molecular Devices) equipped with SoftMax Pro 5.2 software.
IC50 values were determined from the slopes of the linear progress curves by non-linear curve-fitting using GraphPad Prism 5 (GraphPad Software, Inc.).

[2] = target: T2, FAK (Homo sapiens, UniProt Q05397); experiment: Cell-based capture ELISA for inhibition of FAK autophosphorylation [pY397] in U87MG cells
T2 construct: endogenous in cells; host or cells: U87MG glioblastoma cells (ATCC HTB-14)
Procedure: Cell-Based Assays for Inhibition of FAK Autophosphorylation: MiaPaCa2 and U87MG
The ability of compounds to inhibit FAK autophosphorylation was determined in a cell-based capture ELISA assay using U87MG glioblastoma cells (ATCC, Cat # HTB-14) and the FAK [pY397]ELISA kit from Invitrogen (KHO0441). The assay determines the ability of compounds to block endogenous autophosphorylation of FAK stimulated by fibronectin. Cells plated on fibronectin coated 96-well plate were incubated with compounds at various concentrations in the complete growth medium for 2 h. Cell lysates were then prepared and FAK protein was captured onto a FAK antibody-coated 96-well ELISA plate. The phosphotyrosine content of FAK protein was then monitored by quantitation of degree of binding of an antibody that recognizes only the phosphorylated FAK at Y397 within the captured protein.
Reagents Provided in Biosource FAK [pY397]
Cultures of U87MG cells growing in MEM (Earles) containing non-essential amino acids, sodium pyruvate (1 mM), […] (1%) and 10% fetal bovine serum were detached by trypsin-EDTA and suspended in cell growth medium. Cells were then plated onto fibronectin (600 ng/well)-coated 96-well flat bottom plates at 1.7×10^4 cells per well in 60 uL cell growth medium and incubated overnight at 37° C. in a CO2 incubator.
Compound dilutions were prepared from 10 mM DMSO stocks by dilution in cell growth medium, the final concentration of DMSO in the assay being 0.6%. […] The cells were then incubated with compounds at 37° C. for 2 h. The medium was removed by aspiration and cells were lysed by addition of 20 uL of ice-cold cell lysis buffer per well. The plates were kept on ice for 20 min and 50 uL of standard diluent was added to each well. 50 uL of cell lysate from each well was transferred to respective wells in an assay plate and 50 uL of detection antibody was added to all wells except H1-H6 which were no antibody control wells. Capture assay plates were incubated overnight in a cold room.
Following incubation of the cell lysates and detection antibodies in the ELISA plate, the wells were washed 4 times with 120 uL of wash buffer (1×), then 100 uL of diluted HRP conjugated antibody (1:100 dil in diluent) was added to each well, and the plate was incubated at RT for 30 min. The wells were then washed for 4 times with 120 uL of wash buffer (1×) and 100 uL of chromogen was added to each well and incubated in the dark at RT for 5-10 min. 100 uL of stop solution was added to each well and the absorbance measured at 450 nm, 0.1 s.
Comparison of the assay signals obtained in the presence of compound with those of positive and negative controls (cells with no compound and no detection antibody being added), allows degree of inhibition of phospho-FAK [Y397] to be determined over a range of compound concentrations. […] The assay as described above was modified to determine the effect of inclusion of 50% (v/v) mouse or human plasma. In this assay, the compound plate was prepared as 2× concentration in 100 uL of 100% mouse or human plasma, and 60 uL of this was added to 60 uL of culture medium and incubated at 37° C. incubator for 2 h. The rest of the assay was carried out as described above.

[3] = 50% (v/v) human plasma, mean IC50, read-out: FAK Activity Mechanistic (U87MG) HP
[4] = no plasma present, mean IC50, read-out: FAK Activity Mechanistic (U87MG) NP
[5] = 50% (v/v) mouse plasma, mean IC50, read-out: FAK Activity Mechanistic (U87MG) MP
[6] = mean IC50, [ATP] = 50uM, read-out: FAK Activity Biochemical OMNIA, [ATP] = 50uM

T2 sequence (Q05397 whole entry): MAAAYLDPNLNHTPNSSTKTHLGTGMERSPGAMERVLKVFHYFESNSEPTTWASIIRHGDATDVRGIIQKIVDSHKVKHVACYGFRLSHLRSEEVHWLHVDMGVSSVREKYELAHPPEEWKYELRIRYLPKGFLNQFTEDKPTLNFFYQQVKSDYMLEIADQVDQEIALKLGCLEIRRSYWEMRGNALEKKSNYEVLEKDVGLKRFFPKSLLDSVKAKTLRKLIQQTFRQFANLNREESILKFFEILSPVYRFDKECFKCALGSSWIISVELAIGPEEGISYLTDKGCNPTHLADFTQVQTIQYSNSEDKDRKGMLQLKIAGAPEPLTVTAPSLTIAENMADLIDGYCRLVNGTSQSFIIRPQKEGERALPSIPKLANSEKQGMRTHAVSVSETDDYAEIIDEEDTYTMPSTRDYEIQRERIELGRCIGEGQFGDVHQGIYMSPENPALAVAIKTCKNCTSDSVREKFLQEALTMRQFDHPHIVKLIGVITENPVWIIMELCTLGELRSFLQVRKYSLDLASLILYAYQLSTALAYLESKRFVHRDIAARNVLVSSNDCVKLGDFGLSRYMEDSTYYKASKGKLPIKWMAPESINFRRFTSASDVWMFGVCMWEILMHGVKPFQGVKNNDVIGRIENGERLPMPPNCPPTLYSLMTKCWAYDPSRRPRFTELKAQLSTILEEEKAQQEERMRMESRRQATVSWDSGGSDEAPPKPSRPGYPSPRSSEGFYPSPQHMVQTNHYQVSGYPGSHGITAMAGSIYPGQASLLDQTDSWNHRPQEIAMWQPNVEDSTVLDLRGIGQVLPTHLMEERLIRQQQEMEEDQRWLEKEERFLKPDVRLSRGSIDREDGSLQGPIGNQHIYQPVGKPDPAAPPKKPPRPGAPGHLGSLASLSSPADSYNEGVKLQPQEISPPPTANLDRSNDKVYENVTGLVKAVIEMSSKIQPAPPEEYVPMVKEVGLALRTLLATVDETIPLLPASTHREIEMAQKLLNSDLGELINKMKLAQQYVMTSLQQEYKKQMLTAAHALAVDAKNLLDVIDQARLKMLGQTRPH
T1 sequence (Q05397 whole entry): as above

SMILES	pIC50 [1]	pIC50 [2, 3]	pIC50 [2, 4]	pIC50 [2, 5]	pIC50 [1, 6]	pIC50 ([2]; FAK Activity Mechanistic (U87MG) MP, 50% (v/v) mouse plasma, mean IC50)
CCNC(=O)c1nc2ccc1Nc1nc(ncc1C(F)(F)F)Nc1ccc(cc1OC)CP(=O)(OCC)OCC1(COC1)Cn1cc-2cn1 (single isomer, unassigned) [Example 45A]	> 6.40	5.40 to 6.40	> 6.40			
CCOP1(=O)Cc2ccc(c(OC)c2)Nc2ncc(C(F)(F)F)c(n2)Nc2ccc(c(C)c2C(=O)NC)-c2cnn(c2)CCCO1 (racemic) [Example 29]	> 6.40		5.40 to 6.40	< 5.40		
CCOP1(=O)Cc2cc(OC)c(cc2Cl)Nc2ncc(C(F)(F)F)c(n2)Nc2ccc(nc2C(=O)NC)-c2cnn(c2)CC2(COC2)CO1 (racemic) [Example 57]	> 6.40	5.40 to 6.40	> 6.40			
CCOP1(=O)Cc2ccc(c(OC)c2Cl)Nc2ncc(C(F)(F)F)c(n2)Nc2ccc(nc2C(=O)NC)-c2cnn(c2)CCCO1 (racemic) [Example 54]	> 6.40	5.40 to 6.40	> 6.40			
CCOP1(=O)Cc2ccc(c(Br)c2)Nc2ncc(C(F)(F)F)c(n2)Nc2ccc(nc2C(=O)NC)-c2cnn(c2)CCCO1 (racemic) [Example 32]		> 6.40	> 6.40		> 6.40	
CCP1(=O)Cc2ccc(c(OC)c2)Nc2ncc(C(F)(F)F)c(n2)Nc2ccc(nc2C(=O)NC)-c2cnn(c2)CCCO1 (single isomer, unassigned) [Example 67A]		5.40 to 6.40	> 6.40	5.40 to 6.40	> 6.40	
CCOP1(=O)Cc2ccc(c(OC)c2)Nc2ncc(C(F)(F)F)c(n2)Nc2ccc(nc2C(=O)NC)-c2cn(nc2C)CCCO1 (single isomer, unassigned) [Example 34A]		5.40 to 6.40	> 6.40		> 6.40	
CCOP1(=O)Cc2ccc(c(OC)c2)Nc2ncc(C(F)(F)F)c(n2)Nc2ccc(cc2C(=O)N(C)C)-c2cnn(c2)CCCO1 (racemic) [Example 12]		5.40 to 6.40	> 6.40		> 6.40	
CCOP1(=O)Cc2ccc(c(OC)c2)Nc2ncc(C(F)(F)F)c(n2)Nc2ccc(c(OC)c2C(=O)NC)-c2cnn(c2)CCCO1 (racemic) [Example 30]	> 6.40		> 6.40	5.40 to 6.40		
CCCP1(=O)Cc2ccc(c(OC)c2)Nc2ncc(C(F)(F)F)c(n2)Nc2ccc(cc2C(=O)NC)-c2cnn(c2)CCCO1 (racemic) [Example 66]		> 6.40	> 6.40	> 6.40	> 6.40	
CCOP1(=O)Cc2ccc(c(OC)c2)Nc2ncc(C(F)(F)F)c(n2)Nc2ccc(cc2C(=O)NOC)-c2cnn(c2)CCCO1 (racemic) [Example 26]		> 6.40	> 6.40	5.40 to 6.40	> 6.40	
CCOP1(=O)Cc2ccc(c(OC)c2)Nc2ncc(C(F)(F)F)c(n2)Nc2ccc(nc2C(=O)NC)-c2cnn(c2C)CCCO1 (single isomer, unassigned) [Example 35A]		5.40 to 6.40	> 6.40		> 6.40	
CCOP1(=O)Cc2ccc(c(OC)c2)Nc2ncc(C(F)(F)F)c(n2)Nc2ccc(cc2C(=O)NC)-c2cnn(c2)CCCO1 (racemic) [Example 4]	> 6.40	> 6.40	> 6.40			
CCOP1(=O)Cc2ccc(c(C)c2)Nc2ncc(C(F)(F)F)c(n2)Nc2ccc(nc2C(=O)NC)-c2cnn(c2)CCCO1 (racemic) [Example 33]	> 6.40	> 6.40	> 6.40			
CCOP1(=O)Cc2cc(OC)c(cc2Cl)Nc2ncc(C(F)(F)F)c(n2)Nc2ccc(nc2C(=O)NC)-c2cnn(c2)CCCO1 (single isomer, unassigned) [Example 56A]	> 6.40	< 5.40	> 6.40	5.40 to 6.40		
CCOP1(=O)Cc2ccc(c(OC)c2)Nc2ncc(C(F)(F)F)c(n2)Nc2cc(F)c(c3c2C(=O)N(C)C3)-c2cnn(c2)CCCO1 (racemic) [Example 31]	> 6.40		> 6.40			
CCO[P@@]1(=O)Cc2ccc(c(OC)c2)Nc2ncc(C(F)(F)F)c(n2)Nc2cc(F)c(cc2C(=O)NC)-c2cnn(c2)CCCO1.CCO[P@]1(=O)Cc2ccc(c(OC)c2)Nc2ncc(C(F)(F)F)c(n2)Nc2cc(F)c(cc2C(=O)NC)-c2cnn(c2)CCCO1 (mixture of isomers) [Example 7]		> 6.40	> 6.40	> 6.40	> 6.40	
CCOP1(=O)Cc2ccc(c(OC)c2)Nc2ncc(C(F)(F)F)c(n2)Nc2ccc(nc2C(=O)NC)-c2cnn(c2)CCCCO1 (racemic) [Example 15]	> 6.40	> 6.40	> 6.40			
CCOP1(=O)Cc2ccc(c(OC)c2)Nc2ncc(C(F)(F)F)c(n2)Nc2ccc(nc2C(=O)NOC)-c2cnn(c2)CCCO1 (racemic) [Example 46]	> 6.40	> 6.40	> 6.40	5.40 to 6.40		
CCOP1(=O)Cc2ccc(c(Cl)c2)Nc2ncc(C(F)(F)F)c(n2)Nc2ccc(nc2C(=O)NC)-c2cnn(c2)CCCO1 (racemic) [Example 24]		> 6.40	5.40 to 6.40		> 6.40	
CCOP1(=O)Cc2ccc(c(OC)c2)Nc2ncc(C(F)(F)F)c(n2)Nc2ccc(nc2C(=O)NC)-c2cn(nc2OC)CCCO1 (racemic) [Example 48]	> 6.40	> 6.40	> 6.40	5.40 to 6.40		
CCOP1(=O)Cc2ccc(c(OC)c2)Nc2ncc(C(F)(F)F)c(n2)Nc2ccc(nc2C(=O)NC)-c2cnn(c2Cl)CCCO1 (racemic) [Example 51]	> 6.40	> 6.40	> 6.40	5.40 to 6.40		
CCOP1(=O)Cc2ccc(c(F)c2)Nc2ncc(C(F)(F)F)c(n2)Nc2ccc(nc2C(=O)NC)-c2cnn(c2)CCCO1 (racemic) [Example 22]	> 6.40	> 6.40	5.40 to 6.40			
CCOP1(=O)Cc2ccc(c(OC)c2)Nc2ncc(C(F)(F)F)c(n2)Nc2ccc(nc2C(=O)NC)-c2cnn(c2)C(C)(C)CCO1 (racemic) [Example 50]		> 6.40	> 6.40		> 6.40	
CCOP1(=O)Cc2ccc(c(OC)c2)Nc2ncc(C(F)(F)F)c(n2)Nc2ccc(nc2C(=O)NC)-c2cnn(c2)CC(C)CO1 (single isomer, unassigned) [Example 18]		> 6.40	> 6.40		> 6.40	
CCNC(=O)c1cc2ccc1Nc1nc(ncc1C(F)(F)F)Nc1ccc(cc1OC)CP(=O)(OCC)OCCCn1cc-2cn1 (racemic) [Example 9]	> 6.40	> 6.40	> 6.40	5.40 to 6.40		
CCOP1(=O)Cc2ccc(c(OC)c2)Nc2ncc(C(F)(F)F)c(n2)Nc2ccc(nc2C(=O)NC)-c2cc(C(=O)O)n(c2)CCCO1 (racemic) [Example 39]	> 6.40		5.40 to 6.40			< 5.40
